Consider 18 compounds from PubChem BioAssay (NCI).

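Five concentrations, 48 hours, 96-well plates. TGI is the concentration that stops growth completely.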

What all share (experiment): NCI anticancer screen, dose series, 48 h
Assay [1] concerns A549 NSCLC.
The subject of assay [2] is DU-145 prostate.
Assay [3] concerns HCT-116 colon.
Assay [4] relates to HT29 colon.
The test system of assay [5] is KM12 colon.
The test system of assay [6] is M14 melanoma.
Assay [7] has as its system OVCAR-4 ovarian.
Assay [8] has as its system OVCAR-8 ovarian.
The test system of assay [9] is RXF 393 renal.
For assay [10], the system named is SF-295 CNS.
Assay [11] has as its system SK-MEL-5 melanoma.
Assay [12] concerns SN12C renal.
Assay [13] concerns SNB-75 CNS.
Assay [14] concerns SW-620 colon.
The subject of assay [15] is T-47D breast.
Assay [16] deals with HCT-15 colon.
The subject of assay [17] is NCI-H522 lung.
For assay [18], the system named is PC-3 prostate.
Assay [19] relates to RPMI-8226 leukemia.

Consider `CC(C)(C)[Si](C)(C)OCCc1ccccc1C1CC2(S(=O)(=O)c3ccccc3)ON1CC2S(=O)(=O)c1ccccc1` (stereo not given), for which the TGI in [1], in assay [2], in assay [3], in assay [4], in [5] and in [6] was > 100 µM throughout. In addition, the TGI in [7], in [8], in [9], in assay [10], in assay [11] and in assay [12] was > 100 µM throughout. Besides, the TGI in assay [13], in assay [14] and in assay [15] was > 100 µM throughout.

On to `CN(/N=C/C=N/N(C)C1=NCCCN1)C1=NCCCN1`, for which the TGI in assay [1], in assay [3], in assay [16], in assay [4], in assay [5] and in assay [6] was > 100 µM throughout. Moreover, the TGI in [17], in assay [7], in assay [8], in assay [18], in [9] and in assay [10] was > 100 µM each time. Also, the TGI in assay [11], in assay [12], in [13] and in [14] was > 100 µM throughout.

With `O=C1NC2C3CC(OCc4ccccc4)(OCc4ccccc4)C2OC3O1` (stereo not given), the TGI in assay [1], in [3], in assay [16], in assay [4], in assay [5] and in assay [6] was > 50 µM each time. Further, the TGI in assay [19], in assay [10], in assay [11], in assay [12], in assay [13] and in assay [14] was > 50 µM in each case.

As to `O=C(OCc1ccccc1)c1ccc(NCc2cc(O)ccc2O)cc1`, the TGI in assay [1] was found to be 20.5 µM; in [2], 13.5 µM; in assay [3], 3.02 µM; in assay [16] it was 2.42 µM; in [4], 20.3 µM; in assay [5] it was 3.62 µM. For the same compound, the TGI is 4.02 µM in assay [6]; 0.883 µM in assay [17]; 2.99 µM in [7]; 2.75 µM in assay [8]; 2.73 µM in assay [18]; > 100 µM in assay [19]. The TGI stood at 2.4 µM in assay [9]; 17.1 µM in assay [10]; 2.87 µM in assay [11]; 2.78 µM in [12]; 3.39 µM in assay [13]; 3.93 µM in assay [14].

As to `O=C(/C=C/c1ccccc1)c1cc(C(=O)/C=C/c2ccccc2)c(O)cc1O`, the TGI in assay [1], in assay [3], in assay [16], in assay [4], in assay [6] and in [8] was > 100 µM throughout. Moreover, the TGI in [18], in assay [19], in assay [11], in assay [12] and in assay [14] was > 100 µM in each case.

Turning to `O=c1[nH]nc(-c2ccccc2)n1-c1cccc([N+](=O)[O-])c1`, the TGI in assay [1], in assay [2], in [3], in assay [16], in assay [4] and in assay [5] was > 100 µM in each case. Also, the TGI in [6], in [17], in assay [7], in assay [8], in assay [19] and in assay [9] was > 100 µM throughout. In addition, the TGI in [10], in assay [11], in assay [12], in [13], in assay [14] and in [15] was > 100 µM in each case.

Turning to `O=C(O/N=c1/ccc(=O)/c(=N\OC(=O)c2ccccc2)c1=O)c1ccccc1`, the TGI in assay [1], in assay [3], in assay [16], in assay [4], in [5] and in assay [6] was > 100 µM in each case. Further, the TGI in [17], in assay [7], in assay [8], in assay [18], in [19] and in assay [9] was > 100 µM throughout. Further, the TGI in assay [10], in assay [11], in [12], in assay [13], in assay [14] and in assay [15] was > 100 µM throughout.

Turning to `Cc1cc(Cl)ccc1N=C1NC(=O)C(CC(=O)Nc2cccc(C)c2C)S1` (stereo not given), the TGI was 96.3 µM in [1]; > 100 µM in [16]; > 100 µM in assay [4]; > 100 µM in assay [5]; 50.9 µM in assay [6]; 69.2 µM in [7]. Besides, the TGI was found to be 75.9 µM in assay [8]; 64.2 µM in assay [19]; 81.2 µM in assay [10]; 41.4 µM in assay [11]; 82.3 µM in assay [12]; 48.8 µM in assay [13]. The TGI in [14] is > 100 µM.

For `CCOC(=O)C1=C(O)C(=O)c2ccoc2C1=O`, the TGI in [1], in assay [3], in assay [16], in [4], in [5] and in [6] was > 100 µM throughout. Besides, the TGI in assay [17], in [7], in assay [8], in assay [19], in [9] and in assay [10] was > 100 µM throughout. The TGI in assay [11], in assay [12], in assay [13] and in [14] was > 100 µM throughout.

As for `O=C(Cn1c2c(c3ccccc31)CCCC2)N1CCCCC1`, the TGI in assay [1], in assay [3], in assay [16], in [4], in [6] and in assay [7] was > 100 µM throughout. Further, the TGI in [8], in assay [18], in [19], in assay [10], in [11] and in [12] was > 100 µM in each case. In addition, the TGI in [14] is > 100 µM.

For the compound `CN(C(=S)Cc1ccc(Cl)c(Cl)c1)C1CCCC[C@@H]1N1CCCC1` (stereo not given in full), the TGI is > 100 µM in assay [1]; > 100 µM in assay [2]; > 100 µM in [3]; > 100 µM in assay [16]; 45.5 µM in assay [4]; > 100 µM in [5]. The TGI is 37.2 µM in assay [6]; > 100 µM in assay [7]; > 100 µM in [18]; > 100 µM in [19]; 36.2 µM in assay [10]; 33 µM in assay [11]. Besides, the TGI is > 100 µM in assay [12], 48.4 µM in assay [14] and > 100 µM in assay [15].

Turning to `CC(C)(C)n1c(=O)n(-c2ccccc2)n(C(C)(C)C)c1=O`, the TGI in assay [1], in [3], in assay [16], in assay [4], in assay [5] and in assay [6] was > 100 µM each time. Further, the TGI in [7], in [8], in [18], in [9], in [10] and in [11] was > 100 µM throughout. The TGI in assay [12], in assay [13] and in assay [14] was > 100 µM each time.

Take `CCOC(=O)[C@@H]1ON2O[C@@H](OC3CCCCC3c3ccccc3)C[C@H]3OC(=O)[C@@H]1C32` (stereo not given in full): the TGI in assay [1], in [2], in assay [3], in assay [16], in assay [4] and in assay [5] was > 100 µM in each case. Further, the TGI in assay [6], in assay [17], in [8], in [19], in assay [9] and in assay [10] was > 100 µM throughout. Also, the TGI in assay [11], in assay [12], in assay [13], in assay [14] and in assay [15] was > 100 µM each time.

In the case of `CC(Cc1ccccc1)N(C)Cc1nc(C2CCC([N+](=O)[O-])O2)no1` (stereo not given), the TGI in assay [1] came out at 27.4 µM; in assay [2], 24.9 µM; in assay [3] it was 25.3 µM; in assay [16] it was 7.07 µM; in [4] it was 11.5 µM; in assay [5], 21 µM. In addition, the TGI in assay [6] stood at 19.1 µM; in [7] it was 21.3 µM; in [8], 59.1 µM; in assay [19] it was 72.8 µM; in assay [9], 37.6 µM; in [10], 20.9 µM. Besides, the TGI in assay [11] worked out at 24.3 µM; in [12] it was 11 µM; in assay [13] it was 23.1 µM; in assay [14], 14.9 µM; in assay [15], 66.1 µM.

For `CC1(C)OC[C@H](COCOP2(=O)Oc3ccc4ccccc4c3-c3c(ccc4ccccc34)O2)O1`, the TGI was determined as 63.3 µM in [1]; 32.2 µM in assay [2]; 28.3 µM in assay [3]; 28.6 µM in assay [16]; 31.3 µM in assay [4]; 29.4 µM in [5]. Also, the TGI in [6] came out at 32 µM; in [8], 63.3 µM; in [18], 27.6 µM; in assay [10], 32.2 µM; in [11], 73 µM; in assay [12] it was 30.1 µM. For the same compound, the TGI in assay [14] was 29.7 µM; in [15], 36.2 µM.

As to `CC(=O)N1C(=O)c2cc3ccccc3cc21`, the TGI in assay [1], in [2], in assay [3], in assay [16], in [6] and in [8] was > 100 µM in each case. Moreover, the TGI in assay [18], in [19], in [11], in assay [12], in assay [13] and in assay [14] was > 100 µM each time. For the same compound, the TGI in assay [15] was > 100 µM.

As for `COc1ccc(C2Oc3c(cccc3-c3c(-c4ccc(O)cc4)oc4cc(O)cc(O)c4c3=O)C(=O)C2O)cc1O` (stereo not given), the TGI in [1], in [2], in assay [3], in assay [16], in assay [4] and in assay [6] was > 100 µM each time. Moreover, the TGI in assay [7], in assay [8], in [18], in assay [19], in [10] and in assay [11] was > 100 µM throughout. Moreover, the TGI in assay [12], in assay [13], in assay [14] and in assay [15] was > 100 µM in each case.

For `CCCCCCCCCC(=O)NC(CCC(=O)N(CCNC(=O)c1nc(-c2ccccc2)oc1-c1ccccc1)Cc1ccccc1)C(=O)O` (stereo not given), the TGI was found to be 31.9 µM in assay [1]; 43.7 µM in assay [2]; 32.5 µM in assay [3]; 29.6 µM in assay [16]; 32.3 µM in assay [4]; 46.6 µM in assay [5]. For the same compound, the TGI came out at 28.3 µM in [6]; 34.3 µM in assay [17]; 75.2 µM in [7]; 35.5 µM in assay [8]; 79 µM in assay [19]; 36.8 µM in assay [9]. Besides, the TGI in [10] amounted to 32.8 µM; in assay [11], 29.7 µM; in assay [12], 37.6 µM; in [13], 29.6 µM; in assay [14], 41.8 µM; in assay [15] it was 47.7 µM.
